Molecular target: T1, human ΔF508-CFTR (Homo sapiens, UniProt P13569, DEL508-508)
T1 construct: expressed in transfected cells
Assay: CFTR-YFP high throughput assay, CFTR corrector protocol (YFP iodide flux quench)
Type: cell-based
Details: FRT cells expressing human ΔF508-CFTR and YFP-H148Q/I152L, 24-26 h incubation with compound
Description: Assays for Detecting and Measuring the Effect of Compounds on dF508-CFTR Channels CFRT-YFP High Throughput Assay-CFTR Corrector Protocol:
This protocol is designed to selectively screen small molecule compounds for F508del CFTR corrector activities in the HTS YFP flux assay. In this protocol, the cells are incubated with testing compounds for 24 hours, washed with PBS, stimulated with forskolin and a standard potentiator, and read on a 384-well HTS plate reader, such as the Hamamatsu FDDD-6000.
YFP fluorescence intensity is acquired at high speed before and after iodide buffer is injected to the assay cells. Iodide enters the cells via active CFTR channels in the plasma membrane, and quenches the YFP fluorescence. The rate of fluorescence quenching is proportionally related to the total CFTR activities in the cell membrane. dF508-CFTR corrector accelerates YFP quenching by increasing the number of CFTR molecules in the testing cell plasma membrane.
This method was initially developed for bench top plate readers (Galietta et al., 2001), and was adapted to the HTS format (Sui et al. Assay Drug Dev. Technol. 2010).
Fisher Rat Thyroid (FRT) cells stably expressing both human ΔF508-CFTR and a halide-sensitive yellow fluorescent protein (YFP-H148Q/I152L 25,22) (Galietta et al., Am. J. Physiol Cell Physiol, 281(5), C1734, 2001) were cultured on plastic surface in Coon's modified Ham's F12 medium supplemented with FBS 10%, L-glutamine 2 mM, penicillin 100 U/ml, and streptomycin 100 μg/ml. G418 (0.75-1.0 mg/ml) and zeocin (3.2 ug/ml) were used for selection of FRT cells expressing ΔF508-CFTR and YFP. For primary screening, FRT cells were plated into 384-well black wall, transparent bottom microtiter plates (Costar; Corning Inc.) at a cell density of 20,000-40,000 per well. Test compound was applied to the cells at varying concentrations ranging from 2 nM-[…] in either a 2-fold or 3-fold dilution series. Cells were incubated in a cell culture incubator at 37° C. with 5% CO2 for 24-26 h. Assay plates were washed with DPBS media (Thermo, cat #SH30028.02) to remove unbound cells and compound. Stimulation media (25 μL) containing 20 μM Forskolin & 30 μM P3 [6-(Ethyl-phenyl-sulfonyl)-4-oxo-1,4-dihydro-quinoline-3-carboxylic acid 2-methoxy-benzylamide] in Hams F-12 coon's modified media was added to the plate wells and incubated at room temperature for 60-120 min. 25 μL of HEPES-PBS -I buffer (10 mM HEPES, 1 mM MgCl2, 3 mM KCl, 1 mM CaCl2, 150 mM NaI) was then added and fluorescence quench curves (Excitation 500 nm/Emission 540 nm; exposure 136 ms) were immediately recorded on an FDSS-6000 plate reader (Hamamatsu). Quench rates were derived from least squares fitting of the data as described by Sui et al. (2010).

T1 sequence (P13569 with tags, fused parts or gaps DEL508-508): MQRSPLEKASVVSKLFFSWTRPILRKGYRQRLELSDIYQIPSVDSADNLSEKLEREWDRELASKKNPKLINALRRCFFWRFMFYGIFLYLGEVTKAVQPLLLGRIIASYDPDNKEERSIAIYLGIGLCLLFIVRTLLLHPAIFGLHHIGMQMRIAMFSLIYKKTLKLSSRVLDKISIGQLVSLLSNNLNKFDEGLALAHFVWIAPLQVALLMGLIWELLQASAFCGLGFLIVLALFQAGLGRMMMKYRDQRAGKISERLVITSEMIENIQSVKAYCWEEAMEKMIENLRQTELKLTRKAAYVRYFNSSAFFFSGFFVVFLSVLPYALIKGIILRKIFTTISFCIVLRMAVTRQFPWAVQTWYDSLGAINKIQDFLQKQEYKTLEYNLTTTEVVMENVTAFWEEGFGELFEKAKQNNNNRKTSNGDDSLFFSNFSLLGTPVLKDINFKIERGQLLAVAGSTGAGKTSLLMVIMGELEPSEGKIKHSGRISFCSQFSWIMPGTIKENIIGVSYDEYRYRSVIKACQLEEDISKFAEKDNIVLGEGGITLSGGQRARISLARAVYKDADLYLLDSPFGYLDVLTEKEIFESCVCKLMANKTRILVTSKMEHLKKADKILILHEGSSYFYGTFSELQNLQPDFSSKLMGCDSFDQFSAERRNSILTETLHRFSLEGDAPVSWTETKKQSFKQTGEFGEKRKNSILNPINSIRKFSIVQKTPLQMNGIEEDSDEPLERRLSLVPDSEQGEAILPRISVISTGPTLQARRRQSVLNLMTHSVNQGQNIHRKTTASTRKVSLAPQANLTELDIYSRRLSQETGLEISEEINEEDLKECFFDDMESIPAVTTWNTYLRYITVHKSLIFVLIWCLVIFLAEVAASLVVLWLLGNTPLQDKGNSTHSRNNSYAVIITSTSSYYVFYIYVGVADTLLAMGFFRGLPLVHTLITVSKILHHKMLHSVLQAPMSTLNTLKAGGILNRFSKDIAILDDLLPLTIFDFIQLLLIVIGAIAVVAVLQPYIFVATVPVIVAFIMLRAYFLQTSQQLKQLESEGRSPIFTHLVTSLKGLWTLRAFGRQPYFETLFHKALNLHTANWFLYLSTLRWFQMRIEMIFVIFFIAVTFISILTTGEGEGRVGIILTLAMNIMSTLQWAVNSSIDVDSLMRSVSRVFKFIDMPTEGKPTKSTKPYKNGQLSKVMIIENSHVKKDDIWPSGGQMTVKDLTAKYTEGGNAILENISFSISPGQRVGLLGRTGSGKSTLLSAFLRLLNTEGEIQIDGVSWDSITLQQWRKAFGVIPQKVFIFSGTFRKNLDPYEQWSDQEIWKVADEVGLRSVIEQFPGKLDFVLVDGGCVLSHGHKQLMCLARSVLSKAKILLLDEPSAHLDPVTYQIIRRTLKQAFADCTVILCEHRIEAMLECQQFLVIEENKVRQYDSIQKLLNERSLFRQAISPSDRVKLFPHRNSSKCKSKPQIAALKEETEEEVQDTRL

Emax (normalized to the positive control, read-out: EMAX (% Efficacy, EMAX normalized to the positive control)): 30 to 80% | EC50 (stimulated with 20 μM Forskolin & 30 μM P3): < 10 µM
Compound: COc1cc(S(=O)(=O)N2CCC(n3c(-c4ccccc4)nc4cccnc43)CC2)ccc1Cl [Example 37]

Source: patent publication US9771327B2, “Compounds and methods for the treatment of cystic fibrosis” (FLATLEY DISCOVERY LAB, LLC, priority 2013, dated 2017)
